In this assay the target is T1, Cbl-b (Homo sapiens, UniProt Q13191).
T1 construct: biotin (biotinylated protein)
Put plainly: Cbl-b probe displacement HTRF binding assay. The following applies: 0.4 nM Cbl-b, 150 nM BODIPY probe. The essentials:
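Binding IC50 from four-parameter fit of HTRF signal loss, normalised to DMSO (0%) and no-protein (100%) wells. Biotinylated Cbl-b 0.4 nM was preincubated 60 min with compound (20-point 1:2 dilution) before 15 min with 150 nM BODIPY probe; Tb-streptavidin detection.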

SMILES strings stand for the structures.

T1 sequence (Q13191 whole entry, species assumed): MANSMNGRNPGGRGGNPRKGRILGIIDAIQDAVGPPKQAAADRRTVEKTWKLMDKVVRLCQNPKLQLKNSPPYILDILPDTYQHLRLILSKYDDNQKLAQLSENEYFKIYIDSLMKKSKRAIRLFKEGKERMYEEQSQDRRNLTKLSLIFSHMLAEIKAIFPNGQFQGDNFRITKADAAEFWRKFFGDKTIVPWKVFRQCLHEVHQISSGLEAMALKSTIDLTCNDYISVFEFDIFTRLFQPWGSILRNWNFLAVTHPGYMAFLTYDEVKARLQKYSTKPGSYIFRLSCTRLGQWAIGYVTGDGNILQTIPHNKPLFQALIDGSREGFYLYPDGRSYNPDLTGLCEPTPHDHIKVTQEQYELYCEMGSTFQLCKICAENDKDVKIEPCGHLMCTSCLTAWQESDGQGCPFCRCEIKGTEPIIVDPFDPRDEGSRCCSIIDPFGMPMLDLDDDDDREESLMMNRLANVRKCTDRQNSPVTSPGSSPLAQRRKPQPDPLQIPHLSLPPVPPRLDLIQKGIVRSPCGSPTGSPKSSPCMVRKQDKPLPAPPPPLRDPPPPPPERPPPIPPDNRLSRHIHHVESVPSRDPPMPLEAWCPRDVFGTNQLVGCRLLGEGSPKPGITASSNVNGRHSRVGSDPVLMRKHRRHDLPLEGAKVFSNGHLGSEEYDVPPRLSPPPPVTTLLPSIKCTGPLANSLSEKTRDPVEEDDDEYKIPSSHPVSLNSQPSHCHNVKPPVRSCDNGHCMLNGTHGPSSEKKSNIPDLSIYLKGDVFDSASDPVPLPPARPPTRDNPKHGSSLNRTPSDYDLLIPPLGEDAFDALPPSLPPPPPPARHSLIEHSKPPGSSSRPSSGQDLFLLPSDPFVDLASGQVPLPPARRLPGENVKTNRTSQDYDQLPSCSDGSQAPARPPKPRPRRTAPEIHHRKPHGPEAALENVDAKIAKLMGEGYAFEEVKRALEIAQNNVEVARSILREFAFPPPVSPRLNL

As to `CO[C@@H](C)CNCc1cc(C(=O)Nc2cc(-c3ccc(F)cc3C(=O)N3CC(F)(F)C3)cc(NC(C)C)n2)c(=O)n(C2CC2)c1` [Example 357], the IC50 is under 0.1 µM.
Then `C[C@H](NCc1cc(C(=O)Nc2cc(-c3ccc(C#N)cc3C(=O)N3CC(F)(F)C3)cc(C3CC3)n2)c(=O)n(C2CC2)c1)C1CCCC1` [Example 358], with under 0.1 µM.
In the case of `CO[C@@H](C)[C@H](C)NCc1cc(C(=O)Nc2cc(-c3ccc(Cl)cc3C(=O)N3CC(F)(F)C3)cc(C3CC3)n2)c(=O)n(C2CC2)c1` [Example 359] it was under 0.1 µM; in that of `CO[C@@H](C)CNCc1cc(C(=O)Nc2cc(-c3ccc(F)cc3C(=O)N3CC(F)(F)C3)cc(C3CC3)n2)c(=O)n(C2CC2)c1` [Example 360], under 0.1 µM; in that of `COC[C@H](C)NCc1cc(C(=O)Nc2cc(-c3ccc(C#N)cc3C(=O)N3CC(F)(F)C3)cc(C3CC3)n2)c(=O)n(C2CC2)c1` [Example 361], under 0.1 µM.
In the case of `CC(C)[C@H](C)NCc1cc(C(=O)Nc2cc(-c3ccc(C#N)cc3C(=O)N3CC(F)(F)C3)cc(C3CC3)n2)c(=O)n(C2CC2)c1` [Example 362] it was under 0.1 µM; in that of `CO[C@H]1CCC[C@@H]1NCc1cc(C(=O)Nc2cc(-c3ccc(C#N)cc3C(=O)N3CC(F)(F)C3)cc(C3CC3)n2)c(=O)n(C2CC2)c1` [Example 363], under 0.1 µM.
As for `CO[C@@H](C)CNCc1cc(C(=O)Nc2cc(-c3ccc(C#N)cc3C(=O)N3CCC3)cc(C3CC3)n2)c(=O)n(C2CC2)c1` [Example 364], the IC50 was under 0.1 µM.
In the case of `C[C@H](NCc1cc(C(=O)Nc2cc(-c3ccc(C#N)cc3C(=O)N3CC(F)(F)C3)cc(C3CC3)n2)c(=O)n(C2CC2)c1)C1CC1` [Example 365] it was under 0.1 µM; in that of `N#Cc1ccc(-c2cc(NC(=O)c3cc(CNC[C@@H]4CCCCO4)cn(C4CC4)c3=O)nc(C3CC3)c2)c(C(=O)N2CC(F)(F)C2)c1` [Example 366], under 0.1 µM; in that of `CO[C@@H](C)CNCc1cc(C(=O)Nc2cc(-c3c(F)cc(F)cc3C(=O)N3CC(F)(F)C3)cc(C3CC3)n2)c(=O)n(C2CC2)c1` [Example 367], under 0.1 µM.
In the case of `CO[C@@H](C)CNCc1cc(C(=O)Nc2cc(-c3c(F)cc(F)cc3C(=O)N3CC(F)(F)C3)cc(OC(C)C)n2)c(=O)n(C2CC2)c1` [Example 368] it was under 0.1 µM; in that of `N#Cc1ccc(-c2cc(NC(=O)c3cc(CNC[C@@H]4COCCO4)cn(C4CC4)c3=O)nc(C3CC3)c2)c(C(=O)N2CC(F)(F)C2)c1` [Example 369], under 0.1 µM; in that of `O=C(Nc1cc(-c2ccc(Cl)cc2C(=O)N2CC(F)(F)C2)cc(C2CC2)n1)c1cc(CNCC2CCC2)cn(C2CC2)c1=O` [Example 370], under 0.1 µM.
In the case of `CC(C)Oc1cc(-c2ccc(C#N)cc2C(=O)N2CC(F)(F)C2)cc(NC(=O)c2cc(CNC[C@@H]3COCCO3)cn(C3CC3)c2=O)n1` [Example 371] it was under 0.1 µM; in that of `COC[C@H](C)NCc1cc(C(=O)Nc2cc(-c3ccc(Cl)cc3C(=O)N3CC(F)(F)C3)cc(C3CC3)n2)c(=O)n(C2CC2)c1` [Example 372], under 0.1 µM.
Take `CCOc1cc(-c2ccc(F)cc2C(=O)N2CC(F)(F)C2)cc(NC(=O)c2cc(CNC[C@H](C)OC)cn(C3CC3)c2=O)n1` [Example 373]: the IC50 was under 0.1 µM.
In the case of `COCCNCc1cc(C(=O)Nc2cc(-c3ccc(C#N)cc3C(=O)N3CC(F)(F)C3)cc(C3CC3)n2)c(=O)n(C2CC2)c1` [Example 374] it was under 0.1 µM.
Then `N#Cc1ccc(-c2cc(NC(=O)c3cc(CNCCCF)cn(C4CC4)c3=O)nc(C3CC3)c2)c(C(=O)N2CC(F)(F)C2)c1` [Example 375], with under 0.1 µM; and `C[C@H](NCc1cc(C(=O)Nc2cc(-c3ccc(C#N)cc3C(=O)N3CC(F)(F)C3)cc(C3CC3)n2)c(=O)n(C2CC2)c1)C1CCCO1` (stereo partly shown) [Example 376], with under 0.1 µM.
The compound `CC(C)Oc1cc(-c2ccc(OC(F)F)cc2C(=O)N2CC(F)C2)cc(NC(=O)c2cc(CNC[C@@H]3COCCO3)cn(C)c2=O)n1` [Example 377] had an IC50 of under 0.1 µM.
For the compound `O=C(Nc1cc(-c2ccc(Cl)cc2C(=O)N2CC(F)(F)C2)cc(C2CC2)n1)c1cc(CNC[C@@H]2CCCO2)cn(C2CC2)c1=O` [Example 378], the IC50 is under 0.1 µM.
In the case of `O=C(Nc1cc(-c2ccc(OC(F)F)cc2C(=O)N2CC(F)(F)C2)cc(C2CC2)n1)c1cc(CNC[C@@H]2COCCO2)cn(C2CC2)c1=O` [Example 379] it was under 0.1 µM.
With `CO[C@@H](C)CNCc1cc(C(=O)Nc2cc(-c3ccc(F)cc3C(=O)N3CC(F)(F)C3)cc(NC(C)C)n2)c(=O)n(C)c1` [Example 380], the IC50 is under 0.1 µM.
In turn, `N#Cc1ccc(-c2cc(NC(=O)c3cc(CNCCC(F)F)cn(C4CC4)c3=O)nc(C3CC3)c2)c(C(=O)N2CC(F)(F)C2)c1` [Example 381] yielded an IC50 of under 0.1 µM.
`COCCNCc1cc(C(=O)Nc2cc(-c3ccc(Cl)cc3C(=O)N3CC(F)(F)C3)cc(C3CC3)n2)c(=O)n(C2CC2)c1` [Example 382] gave an IC50 of under 0.1 µM.
On to `N#Cc1ccc(-c2cc(NC(=O)c3cc(CNCC4CC4)cn(C4CC4)c3=O)nc(C3CC3)c2)c(C(=O)N2CC(F)(F)C2)c1` [Example 383], for which the IC50 is under 0.1 µM.
Then `C[C@@H]1C[C@H]1CNCc1cc(C(=O)Nc2cc(-c3ccc(Cl)cc3C(=O)N3CC(F)(F)C3)cc(C3CC3)n2)c(=O)n(C2CC2)c1` [Example 384], with under 0.1 µM.
In the case of `CC1(CNCc2cc(C(=O)Nc3cc(-c4ccc(C#N)cc4C(=O)N4CC(F)(F)C4)cc(C4CC4)n3)c(=O)n(C3CC3)c2)CC1` [Example 385], the IC50 is under 0.1 µM.
Then `CC(C)Oc1cc(-c2ccc(C#N)cc2C(=O)N2CC(F)(F)C2)cc(NC(=O)c2cc(CNC[C@@H]3COCCO3)cn(C)c2=O)n1` [Example 386], with under 0.1 µM; and `CO[C@@H](C)CNCc1cc(C(=O)Nc2cc(-c3ccc(F)cc3C(=O)N3CC(F)(F)C3)cc(OC(C)C)n2)c(=O)n(C)c1` [Example 387], with under 0.1 µM.
Turning to `O=C(Nc1cc(-c2ccc(OC(F)F)cc2C(=O)N2CC(F)(F)C2)cc(C2CC2)n1)c1cc(CNC[C@@H]2CCCCO2)cn(C2CC2)c1=O` [Example 388], the IC50 is under 0.1 µM.
Then `CC(C)Oc1cc(-c2ccc(C#N)cc2C(=O)N2CC(F)(F)C2)cc(NC(=O)c2cc(CNC[C@@H]3CCCO3)cn(C)c2=O)n1` [Example 389], with under 0.1 µM.
In the case of `CC1(NCc2cc(C(=O)Nc3cc(-c4ccc(C#N)cc4C(=O)N4CC(F)(F)C4)cc(C4CC4)n3)c(=O)n(C3CC3)c2)CCC1` [Example 390] it was under 0.1 µM; in that of `N#Cc1ccc(-c2cc(NC(=O)c3cc(CNCCC(F)(F)F)cn(C4CC4)c3=O)nc(C3CC3)c2)c(C(=O)N2CC(F)(F)C2)c1` [Example 391], under 0.1 µM.
Then `CC(C)Oc1cc(-c2ccc(C#N)cc2C(=O)N2CC(F)(F)C2)cc(NC(=O)c2cc(CNC[C@@H]3CCCCO3)cn(C3CC3)c2=O)n1` [Example 392], with under 0.1 µM; and `CO[C@@H](C)CNCc1cc(C(=O)Nc2cc(-c3ccc(C#N)cc3C(=O)N3CC(F)(F)C3)cc(C3CC3)c2)c(=O)n(C2CC2)c1` [Example 393], with under 0.1 µM; and `CO[C@@H](C)CNCc1cc(C(=O)Nc2cc(-c3ccc(C#N)cc3C(=O)N3CC(C)(F)C3)cc(C3CC3)n2)c(=O)n(C2CC2)c1` [Example 394], with under 0.1 µM.
In turn, `CC(C)[C@H](C)NCc1cc(C(=O)Nc2cc(-c3ccc(Cl)cc3C(=O)N3CC(F)(F)C3)cc(C3CC3)n2)c(=O)n(C2CC2)c1` [Example 395] had an IC50 of under 0.1 µM.
Then `CO[C@@H](C)CNCc1cc(C(=O)Nc2cc(-c3ccc(F)cc3C(=O)N3CC(F)(F)C3)cc(C3CC3)c2)c(=O)n(C2CC2)c1` [Example 396], with under 0.1 µM; and `N#Cc1ccc(-c2cc(NC(=O)c3cc(CNC4CCCC4)cn(C4CC4)c3=O)nc(C3CC3)c2)c(C(=O)N2CC(F)(F)C2)c1` [Example 397], with under 0.1 µM.
Then `O=C(Nc1cc(-c2ccc(Cl)cc2C(=O)N2CC(F)(F)C2)cc(C2CC2)n1)c1cc(CNC[C@@H]2CCCCO2)cn(C2CC2)c1=O` [Example 398], with under 0.1 µM; and `C[C@H]1CCCN(Cc2cc(C(=O)Nc3cc(-c4ccc(C#N)cc4C(=O)N4CC(F)(F)C4)cc(C4CC4)n3)c(=O)n(C3CC3)c2)C1` [Example 399], with under 0.1 µM; and `N#Cc1ccc(-c2cc(NC(=O)c3cc(CNCC4(F)CCC4)cn(C4CC4)c3=O)nc(C3CC3)c2)c(C(=O)N2CC(F)(F)C2)c1` [Example 400], with under 0.1 µM.
Then `COC(C)(C)CNCc1cc(C(=O)Nc2cc(-c3ccc(C#N)cc3C(=O)N3CC(F)(F)C3)cc(C3CC3)n2)c(=O)n(C2CC2)c1` [Example 401], with under 0.1 µM; and `CO[C@H]1CC[C@@H]1NCc1cc(C(=O)Nc2cc(-c3ccc(C#N)cc3C(=O)N3CC(F)(F)C3)cc(C3CC3)n2)c(=O)n(C2CC2)c1` [Example 402], with under 0.1 µM.
In turn, `COCCNCc1cc(C(=O)Nc2cc(-c3ccc(F)cc3C(=O)N3CC(F)(F)C3)cc(C3CC3)n2)c(=O)n(C2CC2)c1` [Example 403] returned an IC50 of under 0.1 µM.
Then `COCCNCc1cc(C(=O)Nc2cc(-c3ccc(F)cc3C(=O)N3CC(F)C3)cc(C3CC3)n2)c(=O)n(C2CC2)c1` [Example 404], with under 0.1 µM; and `COCCNCc1cc(C(=O)Nc2cc(-c3c(Cl)cc(Cl)cc3C(=O)N3CC(F)(F)C3)cc(C3CC3)n2)c(=O)n(C2CC2)c1` [Example 405], with under 0.1 µM.
Then `O=C(Nc1cc(-c2ccc(Cl)cc2C(=O)N2CC(F)(F)C2)cc(C2CC2)n1)c1cc(CNCC2CC2)cn(C2CC2)c1=O` [Example 406], with under 0.1 µM; and `CC(C)Oc1cc(-c2ccc(C#N)cc2C(=O)N2CC(F)(F)C2)cc(NC(=O)c2cc(CNC[C@@H]3CCCCO3)cn(C)c2=O)n1` [Example 407], with under 0.1 µM; and `CC1(CNCc2cc(C(=O)Nc3cc(-c4ccc(Cl)cc4C(=O)N4CC(F)(F)C4)cc(C4CC4)n3)c(=O)n(C3CC3)c2)CC1` [Example 408], with under 0.1 µM.

The record behind these values is US20260116868A1 (Arcus Biosciences, Inc., priority 2023, published 2026).
